Assay results: patent US20160297833A1, “THIENOPYRIMIDINES AS MKNK1 AND MKNK2 INHIBITORS” (BAYER PHARMA AKTIENGESELLSCHAFT, priority 2013, published 2016)

Target: T1, human full-length MKNK1 (Homo sapiens, UniProt Q9BUB5, T385D)
T1 construct: GST (N); purchased Carna Biosciences 02-145; host or cells: insect cells (baculovirus expression system)
Assay: MKNK1 kinase high ATP assay (TR-FRET)
Assay type: biochemical
Conditions: Table 1; MKNK1 kinase high ATP assay, 2 mM ATP; read-out: MKNK1 IC50
Method in brief: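 Full-length human MKNK1 (T385D) preincubated 15 min at 22 °C with compound in HEPES pH 7.5/MgCl2/DTT buffer; reaction with 2 mM ATP (final) and 0.06 μM biotinylated peptide (final), 30 min at 22 °C.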

T1 sequence (Q9BUB5 1-424 isoform Q9BUB5-2 T344D): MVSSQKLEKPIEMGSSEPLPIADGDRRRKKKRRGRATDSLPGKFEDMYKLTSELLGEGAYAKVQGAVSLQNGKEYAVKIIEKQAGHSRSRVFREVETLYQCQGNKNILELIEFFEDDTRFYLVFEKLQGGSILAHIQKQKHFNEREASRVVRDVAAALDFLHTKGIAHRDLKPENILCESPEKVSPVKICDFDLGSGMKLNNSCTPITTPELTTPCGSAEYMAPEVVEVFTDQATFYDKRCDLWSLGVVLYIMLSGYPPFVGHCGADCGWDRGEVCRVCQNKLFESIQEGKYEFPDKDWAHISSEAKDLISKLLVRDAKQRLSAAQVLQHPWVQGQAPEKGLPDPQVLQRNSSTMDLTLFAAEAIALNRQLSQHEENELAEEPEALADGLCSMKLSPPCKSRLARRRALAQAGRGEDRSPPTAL

Row | IC50 | SMILES
1 | 0.2 nM | CCOc1cc2[nH]ncc2cc1Nc1ncnc2sc3c(c12)CC[C@H](C(=O)N1CCC(N(C)C)CC1)C3 [Example 122, [4-(Dimethylamino)piperidin-1-yl]{(7S)-4-[(6-ethoxy-1H-indazol-5-yl)amino]-5,6,7,8-tetrahydro[1]benzothieno[2,3-d]pyrimidin-7-yl}methanone]
2 | 0.4 nM | COc1cc2[nH]ncc2cc1Nc1ncnc2sc3c(c12)CC[C@H](C(=O)N(C)CCC(F)(F)F)C3 [Example 123, (7S)-4-[(6-Methoxy-1H-indazol-5-yl)amino]-N-methyl-N-(3,3,3-trifluoropropyl)-5,6,7,8-tetrahydro[1]benzothieno[2,3-d]pyrimidine-7-carboxamide]
3 | 0.3 nM | COc1cc2[nH]ncc2cc1Nc1ncnc2sc3c(c12)CC[C@H](C(=O)N(C)CC(C)(C)O)C3 [Example 124, (7S)—N-(2-Hydroxy-2-methylpropyl)-4-[(6-methoxy-1H-indazol-5-yl)amino]-N-methyl-5,6,7,8-tetrahydro[1]benzothieno[2,3-d]pyrimidine-7-carboxamide]
4 | 0.4 nM | CC(C)Oc1cc2[nH]ncc2cc1Nc1ncnc2sc3c(c12)CC[C@H](C(=O)N(C)CCC(F)(F)F)C3 [Example 125, (7S)—N-Methyl-4-{[6-(propan-2-yloxy)-1H-indazol-5-yl]amino}-N-(3,3,3-trifluoropropyl)-5,6,7,8-tetrahydro[1]benzothieno[2,3-d]pyrimidine-7-carboxamide]
5 | 0.3 nM | CC(C)Oc1cc2[nH]ncc2cc1Nc1ncnc2sc3c(c12)CC[C@H](C(=O)N(C)CC(C)(C)O)C3 [Example 126, (7S)—N-(2-Hydroxy-2-methylpropyl)-N-methyl-4-{[6-(propan-2-yloxy)-1H-indazol-5-yl]amino}-5,6,7,8-tetrahydro[1]benzothieno[2,3-d]pyrimidine-7-carboxamide]
6 | 6.5 nM | CC(C)N(C(=O)[C@H]1CCc2c(sc3ncnc(Nc4ccc5[nH]ncc5c4)c23)C1)C(C)C [Example 127, (7S)-4-(1H-Indazol-5-ylamino)-N,N-di(propan-2-yl)-5,6,7,8-tetrahydro[1]benzothieno[2,3-d]pyrimidine-7-carboxamide]

The remaining lines, values behind:

Row | SMILES | IC50
7 | C[C@H]1COCCN1C(=O)[C@H]1CCc2c(sc3ncnc(Nc4cc5cn[nH]c5cc4OCCN(C)C)c23)C1 [Example 117, [(7S)-4-({6-[2-(Dimethylamino)ethoxy]-1H-indazol-5-yl}amino)-5,6,7,8-tetrahydro[1]benzothieno[2,3-d]pyrimidin-7-yl][(3S)-3-methylmorpholin-4-yl]methanone] | 20 nM
8 | C[C@H]1COCCN1C(=O)[C@H]1CCc2c(sc3ncnc(Nc4cc5cn[nH]c5cc4OCCN4CCCC4)c23)C1 [Example 118, [(3S)-3-Methylmorpholin-4-yl][(7S)-4-({6-[2-(pyrrolidin-1-yl)ethoxy]-1H-indazol-5-yl}amino)-5,6,7,8-tetrahydro[1]benzothieno[2,3-d]pyrimidin-7-yl]methanone] | 92.3 nM
9 | C[C@H]1COCCN1C(=O)[C@H]1CCc2c(sc3ncnc(Nc4cc5cn[nH]c5cc4OCCN4CCCCC4)c23)C1 [Example 119, [(3S)-3-Methylmorpholin-4-yl][(7S)-4-({6-[2-(piperidin-1-yl)ethoxy]-1H-indazol-5-yl}amino)-5,6,7,8-tetrahydro[1]benzothieno[2,3-d]pyrimidin-7-yl]methanone] | 757 nM
10 | COc1cc2[nH]ncc2cc1Nc1ncnc2sc3c(c12)CC[C@H](C(=O)N1C[C@@H]2C[C@H]1CN2C)C3 [Example 120, {(7S)-4-[(6-Methoxy-1H-indazol-5-yl)amino]-5,6,7,8-tetrahydro[1]benzothieno[2,3-d]pyrimidin-7-yl}[(1S,4S)-5-methyl-2,5-diazabicyclo[2.2.1]hept-2-yl]methanone] | 0.2 nM
11 | COc1cc2[nH]ncc2cc1Nc1ncnc2sc3c(c12)CC[C@H](C(=O)N1C[C@H]2C[C@@H]1CN2C)C3 [Example 121, {(7S)-4-[(6-Methoxy-1H-indazol-5-yl)amino]-5,6,7,8-tetrahydro[1]benzothieno[2,3-d]pyrimidin-7-yl}[(1R,4R)-5-methyl-2,5-diazabicyclo[2.2.1]hept-2-yl]methanone] | 0.3 nM
